Laboratory results taken from patent US12612360B2 (Sanofi, priority 2020, dated 2026).

Target: T1, ERα (Homo sapiens, UniProt P03372)
T1 construct: host or cells: MCF7
T1 sequence (P03372 1-595): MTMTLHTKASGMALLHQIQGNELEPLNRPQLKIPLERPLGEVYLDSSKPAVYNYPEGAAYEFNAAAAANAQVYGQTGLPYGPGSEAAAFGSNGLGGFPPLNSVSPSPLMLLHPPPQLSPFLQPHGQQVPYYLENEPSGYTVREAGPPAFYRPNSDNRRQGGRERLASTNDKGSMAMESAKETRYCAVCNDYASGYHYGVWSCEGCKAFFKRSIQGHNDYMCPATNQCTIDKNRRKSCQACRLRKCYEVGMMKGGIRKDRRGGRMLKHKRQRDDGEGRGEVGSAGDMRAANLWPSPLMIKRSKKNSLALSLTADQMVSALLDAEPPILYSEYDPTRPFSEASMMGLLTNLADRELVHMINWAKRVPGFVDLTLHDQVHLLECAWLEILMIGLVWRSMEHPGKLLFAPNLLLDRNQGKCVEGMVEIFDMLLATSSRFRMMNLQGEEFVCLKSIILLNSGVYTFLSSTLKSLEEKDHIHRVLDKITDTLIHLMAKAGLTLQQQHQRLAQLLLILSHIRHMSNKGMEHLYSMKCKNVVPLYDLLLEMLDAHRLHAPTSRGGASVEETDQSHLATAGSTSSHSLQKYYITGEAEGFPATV
Experiment: Estrogen receptor degradation activity: breast cancer cell ERα in cell western assay (MCF7 cells)
Format: cell-based
Settings: for % Degradation At 0.3 μM: 4 hours, relative to fulvestrant 0.1 μM positive control; for DC50: 4 hours post compound addition, concentration which degrades 50% of the estrogen receptor, read-out: Degradation IC50
Summary of the method: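 In-cell western readout: ERα immunofluorescence (Alexa 488) normalised to DNA signal (Syto-64) after formalin fixation. Compounds dosed for 4 h on MCF7 cells in stripped-serum, phenol-red-free medium over nine 1:5 steps, 0.3 to […] final; fulvestrant 0.1 μM control. IC50 in nM for 50% ERα degradation.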

| SMILES | % Degradation At 0.3 μM | DC50 |
| --- | --- | --- |
| Cc1c(C2=C(c3ccc(C=C4CN(CCCF)C4)cc3)c3ccc(C(=O)O)cc3CCC2)ccc(Cl)c1F [Example 81, 8-(4-chloro-3-fluoro-2-methylphenyl)-9-(4-((1-(3-fluoropropyl)azetidin-3-ylidene)methyl)phenyl)-6,7-dihydro-5H-benzo[7]annulene-3-carboxylic acid] | 98% | 0.4 nM |
| Cc1c(Cl)ccc(C2=C(c3ccc(C=C4CN(CCCF)C4)cc3)c3ccc(C(=O)O)cc3CCC2)c1C [Example 82, 8-(4-chloro-2,3-dimethylphenyl)-9-(4-((1-(3-fluoropropyl)azetidin-3-ylidene)methyl)phenyl)-6,7-dihydro-5H-benzo[7]annulene-3-carboxylic acid] | 90% | 0.5 nM |
| Cc1cc(Cl)cc(C)c1C1=C(c2ccc(C=C3CN(CCCF)C3)cc2)c2ccc(C(=O)O)cc2CCC1 [Example 83, 8-(4-chloro-2,6-dimethylphenyl)-9-(4-((1-(3-fluoropropyl)azetidin-3-ylidene)methyl)phenyl)-6,7-dihydro-5H-benzo[7]annulene-3-carboxylic acid] | 93% | 0.4 nM |
| Cc1cc(C#N)ccc1C1=C(c2ccc(C=C3CN(CCCF)C3)cc2)c2ccc(C(=O)O)cc2CCC1 [Example 84, 8-(4-cyano-2-methylphenyl)-9-(4-((1-(3-fluoropropyl)azetidin-3-ylidene)methyl)phenyl)-6,7-dihydro-5H-benzo[7]annulene-3-carboxylic acid] | 92% | 2.1 nM |
| Cc1c(F)cccc1C1=C(c2ccc(C=C3CN(CCCF)C3)cc2)c2ccc(C(=O)O)cc2CCC1 [Example 85, 8-(3-fluoro-2-methylphenyl)-9-(4-((1-(3-fluoropropyl)azetidin-3-ylidene)methyl)phenyl)-6,7-dihydro-5H-benzo[7]annulene-3-carboxylic acid] | 94% | 0.2 nM |
| CCc1ccccc1C1=C(c2ccc(C=C3CN(CCCF)C3)cc2)c2ccc(C(=O)O)cc2CCC1 [Example 86, 8-(2-ethylphenyl)-9-(4-((1-(3-fluoropropyl)azetidin-3-ylidene)methyl)phenyl)-6,7-dihydro-5H-benzo[7]annulene-3-carboxylic acid] | 92% | 0.2 nM |
| Cc1c(F)ccc(C2=C(c3ccc(C=C4CN(CCCF)C4)cc3)c3ccc(C(=O)O)cc3CCC2)c1C [Example 87, 8-(4-fluoro-2,3-dimethylphenyl)-9-(4-((1-(3-fluoropropyl)azetidin-3-ylidene)methyl)phenyl)-6,7-dihydro-5H-benzo[7]annulene-3-carboxylic acid] | 94% | 0.4 nM |
| Cc1cc(Cl)ccc1C1=C(c2ccc(C=C3CN(CCCF)C3)cc2)c2ccc(C(=O)O)cc2CCC1 [Example 89, 8-(4-chloro-2-methylphenyl)-9-(4-((1-(3-fluoropropyl)azetidin-3-ylidene)methyl)phenyl)-6,7-dihydro-5H-benzo[7]annulene-3-carboxylic acid] | 98% | 0.2 nM |
| Cc1cc(F)cc(C)c1C1=C(c2ccc(C=C3CN(CCCF)C3)cc2)c2ccc(C(=O)O)cc2CCC1 [Example 90, 8-(4-fluoro-2,6-dimethylphenyl)-9-(4-((1-(3-fluoropropyl)azetidin-3-ylidene)methyl)phenyl)-6,7-dihydro-5H-benzo[7]annulene-3-carboxylic acid] | 93% | 0.2 nM |
| Cc1c(C#N)cccc1C1=C(c2ccc(C=C3CN(CCCF)C3)cc2)c2ccc(C(=O)O)cc2CCC1 [Example 91, 8-(3-cyano-2-methylphenyl)-9-(4-((1-(3-fluoropropyl)azetidin-3-ylidene)methyl)phenyl)-6,7-dihydro-5H-benzo[7]annulene-3-carboxylic acid] | 87% | 0.9 nM |
| Cl.O=C(O)c1ccc2c(c1)CCCC(c1ccc(Cl)cc1Cl)=C2c1cc(F)c(C=C2CN(CCCF)C2)cc1F [Example 92, 8-(2,4-dichlorophenyl)-9-(2,5-difluoro-4-((1-(3-fluoropropyl)azetidin-3-ylidene)methyl)phenyl)-6,7-dihydro-5H-benzo[7]annulene-3-carboxylic acid hydrochloride] | 98% | 0.3 nM |
| Cc1cc(C=C2CN(CCCF)C2)ccc1C1=C(c2ccc(Cl)cc2Cl)CCCc2cc(C(=O)O)ccc21.Cl [Example 93, 8-(2,4-dichlorophenyl)-9-(4-((1-(3-fluoropropyl)azetidin-3-ylidene)methyl)-2-methylphenyl)-6,7-dihydro-5H-benzo[7]annulene-3-carboxylic acid hydrochloride] | 97% | 0.6 nM |
| Cc1cccc(C2=C(c3ccc(C=C4CN(CCCF)C4)cc3)c3ccc(C(=O)O)cc3CCC2)c1C [Example 94, 8-(2,3-dimethylphenyl)-9-(4-((1-(3-fluoropropyl)azetidin-3-ylidene)methyl)phenyl)-6,7-dihydro-5H-benzo[7]annulene-3-carboxylic acid] | 96% | 0.2 nM |
| O=C(O)c1ccc2c(c1)CCCC(c1ccc(F)cc1C(F)(F)F)=C2c1ccc(C=C2CN(CCCF)C2)cc1 [Example 95, 8-(4-fluoro-2-(trifluoromethyl)phenyl)-9-(4-((1-(3-fluoropropyl)azetidin-3-ylidene)methyl)phenyl)-6,7-dihydro-5H-benzo[7]annulene-3-carboxylic acid] | 94% | 0.2 nM |
| CCc1cc(F)ccc1C1=C(c2ccc(C=C3CN(CCCF)C3)cc2)c2ccc(C(=O)O)cc2CCC1 [Example 96, 8-(2-ethyl-4-fluorophenyl)-9-(4-((1-(3-fluoropropyl)azetidin-3-ylidene)methyl)phenyl)-6,7-dihydro-5H-benzo[7]annulene-3-carboxylic acid] | 98% | 0.2 nM |
| Cc1cccc(C)c1C1=C(c2ccc(C=C3CN(CCCF)C3)cc2)c2ccc(C(=O)O)cc2CCC1 [Example 97, 8-(2,6-dimethylphenyl)-9-(4-((1-(3-fluoropropyl)azetidin-3-ylidene)methyl)phenyl)-6,7-dihydro-5H-benzo[7]annulene-3-carboxylic acid] | 95% | 0.2 nM |
| Cc1cc(F)ccc1C1=C(c2ccc(C=C3CN(CCCF)C3)cc2)c2ccc(C(=O)O)cc2CCC1 [Example 98, 8-(4-fluoro-2-methylphenyl)-9-(4-((1-(3-fluoropropyl)azetidin-3-ylidene)methyl)phenyl)-6,7-dihydro-5H-benzo[7]annulene-3-carboxylic acid] | 96% | 0.3 nM |
| Cc1ccccc1C1=C(c2ccc(C=C3CN(CCCF)C3)cc2)c2ccc(C(=O)O)cc2CCC1 [Example 99, 9-(4-((1-(3-fluoropropyl)azetidin-3-ylidene)methyl)phenyl)-8-(o-tolyl)-6,7-dihydro-5H-benzo[7]annulene-3-carboxylic acid] | 95% | 0.3 nM |
| CC(C)CC1=C(c2ccc(C=C3CN(CCCF)C3)cc2)c2ccc(C(=O)O)cc2CCC1 [Example 100, 9-(4-((1-(3-Fluoropropyl)azetidin-3-ylidene)methyl)phenyl)-8-isobutyl-6,7-dihydro-5H-benzo[7]annulene-3-carboxylic acid] | 94% | 0.3 nM |
| Cl.O=C(O)c1ccc2c(c1)CCCC(c1ccc(Cl)cc1Cl)=C2c1ccc(C=C2CN(CCCF)C2)cc1F [Example 101, 8-(2,4-dichlorophenyl)-9-(2-fluoro-4-((1-(3-fluoropropyl)azetidin-3-ylidene)methyl)phenyl)-6,7-dihydro-5H-benzo[7]annulene-3-carboxylic acid hydrochloride] | 93% | 0.4 nM |
| CC(=C1CN(CCCF)C1)c1ccc(C2=C(c3ccc(Cl)cc3Cl)CCCc3cc(C(=O)O)ccc32)cc1 [Example 102, 8-(2,4-Dichlorophenyl)-9-(4-(1-(1-(3-fluoropropyl)azetidin-3-ylidene)ethyl)phenyl)-6,7-dihydro-5H-benzo[7]annulene-3-carboxylic acid] | 89% | 0.3 nM |
| Cl.O=C(O)c1ccc2c(c1)CCCC(c1ccc(Cl)cc1Cl)=C2c1ccc(C=C2CN(CCCF)C2)c(F)c1 [Example 103, 8-(2,4-dichlorophenyl)-9-(3-fluoro-4-((1-(3-fluoropropyl)azetidin-3-ylidene)methyl)phenyl)-6,7-dihydro-5H-benzo[7]annulene-3-carboxylic acid hydrochloride] | 92% | 0.2 nM |
| Cc1cc(C2=C(c3ccc(Cl)cc3Cl)CCCc3cc(C(=O)O)ccc32)cc(C)c1C=C1CN(CCCF)C1.Cl [Example 104, 8-(2,4-dichlorophenyl)-9-(4-((1-(3-fluoropropyl)azetidin-3-ylidene)methyl)-3,5-dimethylphenyl)-6,7-dihydro-5H-benzo[7]annulene-3-carboxylic acid hydrochloride] | 79% | 4.9 nM |
